# Source: patent US7863326B2, “Pharmaceutical compositions comprising ascorbic acid for the treatment of fungal superinfections and fungal recurrences” (Polichem S.A., priority 2003, dated 2011)
# Tests used:
# [1] = system: Candida; experiment: Double-blind placebo-controlled study of preventing Candida reinfection after miconazole in women with recurrent vaginal candidiasis; assay type: in vivo
# Description: Forty women with an exacerbation of recurrent vaginal candidiasis underwent a follow up preventative therapy with ascorbic acid. Most important inclusion criteria were: adult women in fertile age (18-50); ≧3 episodes of acute vaginal candidiasis in the last 12 months; acute vaginal candidiasis in the last 14 days; eradication of Candida (fresh examination) after an appropriate miconazole treatment. Exclusion criteria were: severe vaginal infections; HIV positivity; diabetes; pregnant women. The design was double blind, parallel groups versus placebo.
# After completion of the standard treatment with miconazole, all the responders (patients with eradication of Candida at the end of treatment) were randomized to a standardized preventative vaginal application of ascorbic acid (in form of gel, containing 7.1% ascorbic acid as the only active ingredient, same composition as per the Example 1) or to an undistinguishable placebo. The product was applied once daily in the evening, before going to bed, for 6 consecutive days. The 6-day cycle was repeated monthly for 6 consecutive months, starting on the first month immediately after patient randomization; during the following 5 months, the therapeutic cycle with ascorbic acid was started on the day after termination of cyclic menses. Primary endpoint of the study was the occurrence of episodes of Candida reinfection, confirmed by fresh examination of the vaginal smear. In case of reinfection, this was treated with a further standard miconazole treatment and the follow up with ascorbic acid was continued immediately after confirmation of microbiological eradication. All patients in the ascorbic acid group terminated the study, 2 patients of placebo group were lost to follow up. […] The protection factor of ascorbic acid against Candida reinfection was 46% in this investigation.
# [2] = system: Candida; experiment: Randomized double-blind placebo-controlled study of preventing Candida superinfection after standard metronidazole treatment; assay type: in vivo, patients
# Description: Two hundred patients with a negative microbiology of their vaginal specimen after a standard metronidazole treatment have been included in a controlled study aimed at the evaluation of ascorbic acid capability to prevent Candida superinfection in those patients. The study was randomized, double blind, parallel groups versus placebo. As active treatment, a 6-day course of vaginal tablets, containing 250 mg silicon-coated ascorbic acid as per the Example 2, was given once monthly for 3 months starting after menses. Placebo was undistinguishable from active treatment. Ninety-five patients in the active group and 92 respectively in the placebo group terminated the study and were included in the efficacy analysis. […] The protection factor of ascorbic acid against Candida superinfection in this experiment was 40%.
# [3] = system: experimental renal candidiasis; details: rats, orally supplemented to the diet; evident at very low dose, disappearing at a higher dose level; cited from earlier work
structure (smiles),measurement,setting,value
"O=C1O[C@H]([C@@H](O)CO)C(O)=C1O [ascorbic acid, L-ascorbic acid]",episodes of reinfection,"[1]; 7.1% ascorbic acid vaginal gel once daily for 6 days, cycle repeated monthly for 6 months, reinfection confirmed by fresh examination of vaginal smear",15 episodes
same,acute infection:patient rate,"[1]; 7.1% ascorbic acid vaginal gel, 6-day cycles monthly for 6 months",0.75 /6 months
same,protection factor against Candida reinfection,"[1]; versus placebo, 6 months",46%
same,patients with Candida superinfection (percent of group),"[2]; vaginal tablets with 250 mg silicon-coated ascorbic acid, 6-day course once monthly for 3 months",9%
same,patients with Candida superinfection,"[2]; vaginal tablets with 250 mg silicon-coated ascorbic acid, 6-day course once monthly for 3 months, 95 patients analysed",9 patients
same,protection factor against Candida superinfection,"[2]; versus placebo, 3 months",40%
same,effect on the resistance to experimental renal candidiasis,[3],inconclusive
